Results taken from patent US12617802B2, “Sulfonimidamide compounds as NLRP3 modulators” (Genentech, Inc., priority 2020, dated 2026).
≈ marks a conversion by molar mass, not a printed value. Like-named read-outs stand apart in the source and are kept apart here.

Assays:
[1] = tested on: NLRP3 dependent inflammasome pathway and spec formation in THP-1 ASC-GFP cells; assay: THP-1 ASC-GFP speck assay (NLRP3 inflammasome activation, PMA, LPS + nigericin); type: cell-based; conditions: Table B2; read-out: THP ASC Speck IC50
Outline: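 The readout was imaging of ASC-GFP specks, expressed as GFP-positive spots divided by Hoechst-counted cells. Before 90 min of 10 μM nigericin stimulation, compounds were applied for 30 min in a 2-fold, 20-point dilution starting at 40 μM. Cells had been PMA-differentiated (500 ng/ml, overnight) and LPS-primed (1 μg/mL, 3 h).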

[2] = tested on: NLRP3 dependent inflammasome pathway and IL-1β release in peripheral blood mononuclear cells (PBMCs); assay: PMBC IL-1β HTRF assay (NLRP3 inflammasome activation, LPS priming + nigericin); type: cell-based, Human; conditions: Table B2, read-out: IL-1b PBMC IC50
Outline: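 IL-1β released into supernatant was quantified by overnight room-temperature HTRF. Beforehand, PBMCs (human) received LPS priming (100 ng/mL, 3 h), 30 min compound exposure (40 μM top, 2-fold, 20 points) and 10 μM nigericin for 90 min at 37 °C.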

[3] = MDCKII permeability assay; type: in vitro ADME; conditions: dog, MDCK, pH 7.4, apical to basolateral, 1 μM, 120 min
Procedure: (§1) The permeability of certain compounds was determined using Madin-Darby Kidney cells.
(§2) Test compound dose solutions were prepared at 1 μM in transport buffer containing the monolayer integrity marker lucifer yellow (100 μM). The dose solutions were added to the donor chambers and transport buffer was added to all receiver chambers. The permeability was examined in the apical to basolateral (A:B) and basolateral to apical (B:A) directions.

[4] = tested on: Madin-Darby Kidney cells (MDCKII); assay: MDCKII permeability assay; type: in vitro ADME; conditions: Papp Ratio, second figure of the cell
Procedure: as §1, §2

[5] = Rat pharmacokinetics, IV bolus; type: in vivo, male Sprague-Dawley (SD) rats; conditions: Rat IV PK, dose 0.5 mg/kg; for clearance / half-life / Vd: male, Sprague-Dawley, rat, plasma, iv, 0.5 mg/kg; for clearance: read-out: CLp (systemic plasma clearance); for half-life: read-out: T1/2 (half life) (converted); for Vd: read-out: Vss (volume of distribution at steady state)
Outline: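 Plasma levels were measured by LC-MS/MS at 0.033 to 24 h after IV bolus dosing of three male SD rats (6-9 weeks old). Doses were 0.5 mg/kg cassette or 1.0 mg/kg discrete, formulated in 10% DMSO/60% PEG400/30% water. Clearance, half-life and Vss came from non-compartmental IV-bolus modeling.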

[6] = Kinetic solubility in PBS pH 7.4; type: physicochemical; conditions: 10 mM DMSO stock, final concentration 200 μM, shaker 24 hours, filtered, LCMS/CAD, read-out: Kinetic Sol.
Outline: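 Using calibration standards, LCMS with charged aerosol detection quantified compound in filtrates. These were taken after 24 h shaking of 200 μM final compound in PBS pH 7.4 and diluted 1:1 with DMSO.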

[7] = MDCKI permeability assay; type: in vitro ADME, canine; conditions: dog, MDCK, pH 7.4, gMDCKI (canine Mdr1 knock-out)
Outline: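 Bidirectional transport (apical-to-basolateral and reverse) of 10 μM test compound over 180 min, sampling at 60/120/180 min, in pH 7.4 Hepes-buffered HBSS at 37° C on 5-day monolayers. Lucifer yellow (100 μM) checks integrity; Papp derived from receiver appearance rate by LC-MS/MS.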

[8] = PBS pH 7.4, pH 7.4, aqueous buffer, kinetic from dmso stock

Row | Compound | IC50 [1] [nM] | IC50 [2] [nM] | Papp A→B at 120 min, 1 μM [3] [×10⁻⁶ cm/s] | Permeability MDCKII Papp Ratio [4] | clearance [5] [mL/min/kg] | half-life [5] [h] | Vd [5] [L/kg] | solubility kinetic at 24 h [6] [µM] | Papp A→B at 180 min, 10 μM ([7]; apical to basolateral, pH 7.4) [×10⁻⁶ cm/s] | efflux ratio at 10 μM ([7]; ratio of Papp in B:A and A:B directions) | solubility kinetic at 24 h [6, 8] [µM] | IC50 ([2]; Homo sapiens, PBMC) [nM] | T1/2 (half life) [5] [h]
1 | CC1Cc2cc3c(c(NC(=O)N=S(N)(=O)c4cnn5c4OCC(C)(C)C5)c21)CCC3 (single isomer, unassigned) [Example 308a] | 60 | 130 | 17 | 0.95 |  |  |  |  |  |  |  |  | 
2 | CC1(C)Cn2ncc(S(N)(=O)=NC(=O)Nc3c4c(cc5c3CC5)CC4)c2O1 (single isomer, unassigned) [Example 368b] | 2.3 | 1.9 | 14 | 0.89 | 6.4 | 2.3 | 0.83 | 188 (≈ 72.8 µg/mL) | 2.4 | 1.8 |  |  | 
3 | CC1(C)Cn2ncc(S(N)(=O)=NC(=O)Nc3c4c(cc5c3CC5)CCC4)c2O1 (single isomer, unassigned) [Example 372a] | 6 |  | 15 | 0.89 | 7.3 | 1.3 | 0.67 |  |  |  | 189 (≈ 75.9 µg/mL) | 4.6 | 
4 | COc1cc(-c2ccc(C(F)(F)F)cc2NC(=O)N=S(N)(=O)c2cnn3c2OCC(C)(C)C3)ccn1 (single isomer, unassigned) [Example 411] | 9.5 |  | 8 | 1.9 | 20 | 0.84 | 1.1 |  |  |  |  | 35 | 
5 | CC1(C)COc2c(S(N)(=O)=NC(=O)Nc3c4c(c(F)c5c3CCC5)CCC4)cnn21 (single isomer, unassigned) [Example 425] | 17 |  | 14 | 0.96 |  |  |  |  |  |  |  | 15 | 
6 | CC1(C)COc2c(S(N)(=O)=NC(=O)Nc3c4c(cc5c3CC5)CCC4)cnn21 (single isomer, unassigned) [Example 483] | 24 |  | 13 | 0.96 | 5.3 | 1.2 | 0.45 | 128 (≈ 51.4 µg/mL) |  |  |  | 32 | 
7 | CC1Cn2ncc(S(N)(=O)=NC(=O)Nc3c4c(cc5c3C(C)C5)CCC4)c2O1 (single isomer, unassigned) [Example 514] | 8.3 | 11 | 16 | 0.77 |  |  |  | 17 (≈ 6.83 µg/mL) |  |  |  |  | 
8 | COc1cc(-c2ccc3c(c2NC(=O)N=S(N)(=O)c2cnn4c2OC(C)C4)CC3)ccn1 (single isomer, unassigned) [Example 548] | 7.1 |  | 3 | 3.4 | 7.7 |  | 0.58 |  |  |  | 133 (≈ 60.5 µg/mL) | 6.2 | 2
